In patent publication US12146004B2, “Polymyxin compounds and uses thereof” (priority 2014, dated 2024):
In brackets after ≈: the same amount, converted by molar mass. Where two headings read alike, the source gives them in different places. Numbered stars: 1 amine (or outer) side, 2 acyl side, 3 side chain; on linkers, the order of the positions; unused ones are H or OH. Bridge positions count the residues as written; N and C are the ends. Square brackets hold non-standard residues; d marks the D form. Peptide text beside a SMILES is read from it. * marks the point of attachment. ξ: configuration not given here. X5 = CCCCCCCCc1ccc(C[C@@H](N[*:1])C(=O)[*:2])cc1; dPhe(4-CN) = N#Cc1ccc(C[C@@H](N)C(=O)O)cc1; Octanoyl(6-Me) = CCC(C)CCCCC(=O)*; dCha = N[C@H](CC1CCCCC1)C(=O)O; Thr(3ξ) = CC(O)[C@H](N)C(=O)O; X4 = CC(C)CC1CNCC(C(=O)*)C1; X21 = NCC(CC1CCCCC1)C(=O)*; Dab = NCC[C@H](N)C(=O)O; Dap = NC[C@H](N)C(=O)O

Columns and labels:
Format in all cases: cell-based
[1] = system: Acinetobacter baumannii
Outline: (§1)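 Each compound was tested against a panel of up to nine strains per Gram-negative species. The panel included strains that show elevated MICs to Polymyxin. Activity was recorded as MIC in μg/mL.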

[2] = system: Escherichia coli
Outline: as §1

[3] = system: Klebsiella pneumoniae
Outline: as §1

[4] = system: Pseudomonas aeruginosa
Outline: as §1

Compound	MIC A. baumanii ATCC BAA-747 [1] [µg/mL]	MIC A. baumanii NCTC 13424 [1] [µg/mL]	MIC E. coli 058 [2] [µg/mL]	MIC E. coli ATCC 25922 [2] [µg/mL]	MIC K. pneumoniae 065 [3] [µg/mL]	MIC K. pneumoniae ATCC 13882 [3] [µg/mL]	MIC P. aeruginosa ATCC 27853 [4] [µg/mL]	MIC P. aeruginosa CCUG 59347 [4] [µg/mL]	MIC A. baumanii 053 [1] [µg/mL]	MIC A. baumanii 056 [1] [µg/mL]	MIC E. coli 061 [2] [µg/mL]	MIC K. pneumoniae 063 [3] [µg/mL]	MIC P. aeruginosa 068 [4] [µg/mL]	MIC P. aeruginosa 070 [4] [µg/mL]	other results
CC(C)C[C@@H]1NC(=O)[C@@H](CC2CCCCC2)NC(=O)[C@H](CCN)NC(=O)[C@@H](NC(=O)[C@H](CCN)NC(=O)[C@@H](NC(=O)CC(CN)C2CCCCC2)[C@@H](C)O)CCNC(=O)[C@H]([C@@H](C)O)NC(=O)[C@H](CCN)NC(=O)[C@H](CCN)NC1=O (single isomer, unassigned; isomer 2) [Example 87, 4-amino-3-cyclohexylbutanoyl polymyxin [D-cyclohexylalanine-6]nonapeptide. Isomer 2]															MIC A. baumanii 053 ([1]; strain 053): 64 µg/mL (≈ 56.3 µM); MIC A. baumanii 056 ([1]; strain 056): 64 µg/mL (≈ 56.3 µM); MIC A. baumanii ATCC BAA-747 ([1]; strain ATCC BAA-747): 0.25 µg/mL (≈ 0.22 µM); MIC A. baumanii NCTC 13424 ([1]; strain NCTC 13424): 0.125 µg/mL (≈ 0.11 µM); MIC E. coli 058 ([2]; strain 058): 4 µg/mL (≈ 3.52 µM); MIC E. coli 061 ([2]; strain 061): 16 µg/mL (≈ 14.1 µM); MIC E. coli ATCC 25922 ([2]; strain ATCC 25922): 0.125 µg/mL (≈ 0.11 µM); MIC E. coli NCTC 9001 ([2]; strain NCTC 9001): 0.125 µg/mL (≈ 0.11 µM); MIC K. pneumoniae 063 ([3]; strain 063): 16 µg/mL (≈ 14.1 µM); MIC K. pneumoniae 065 ([3]; strain 065): 0.5 µg/mL (≈ 0.44 µM); MIC K. pneumoniae ATCC 13882 ([3]; strain ATCC 13882): 0.25 µg/mL (≈ 0.22 µM); MIC P. aeruginosa 068 ([4]; strain 068): 2 µg/mL (≈ 1.76 µM); MIC P. aeruginosa 070 ([4]; strain 070): 8 µg/mL (≈ 7.04 µM); MIC P. aeruginosa ATCC 27853 ([4]; strain ATCC 27853): 0.25 µg/mL (≈ 0.22 µM); MIC P. aeruginosa CCUG 59347 ([4]; strain CCUG 59347): 0.5 µg/mL (≈ 0.44 µM)
CC(C)CCC(CCN)C(=O)N[C@H](C(=O)N[C@@H](CCN)C(=O)N[C@H]1CCNC(=O)[C@H]([C@@H](C)O)NC(=O)[C@H](CCN)NC(=O)[C@H](CCN)NC(=O)[C@H](CC(C)C)NC(=O)[C@@H](CC2CCCCC2)NC(=O)[C@H](CCN)NC1=O)[C@@H](C)O (single isomer, unassigned; isomer 2) [Example 89, 2-(2-aminoethyl)-5-methylhexanoyl polymyxin [D-cyclohexylalanine-6]nonapeptide. Isomer 2]	0.5 (≈ 0.445 µM)	0.25 (≈ 0.222 µM)	16 (≈ 14.2 µM)	0.125 (≈ 0.111 µM)	32 (≈ 28.5 µM)	0.25 (≈ 0.222 µM)	0.5 (≈ 0.445 µM)	1 (≈ 0.889 µM)							
CCC(CC)CC(CCN)C(=O)N[C@H](C(=O)N[C@@H](CCN)C(=O)N[C@H]1CCNC(=O)[C@H]([C@@H](C)O)NC(=O)[C@H](CCN)NC(=O)[C@H](CCN)NC(=O)[C@H](CC(C)C)NC(=O)[C@@H](CC2CCCCC2)NC(=O)[C@H](CCN)NC1=O)[C@@H](C)O (single isomer, unassigned; isomer 2) [Example 92, 2-(2-aminoethyl)-4-ethylhexanoyl polymyxin [D-cyclohexylalanine]-6 nonapeptide. Isomer 2]	0.125 (≈ 0.11 µM)	0.125 (≈ 0.11 µM)	4 (≈ 3.51 µM)	0.06 (≈ 0.0527 µM)	8 (≈ 7.03 µM)	0.25 (≈ 0.22 µM)	0.25 (≈ 0.22 µM)	1 (≈ 0.878 µM)							
CCCCCCCCc1ccc(C[C@H]2NC(=O)[C@H](CCN)NC(=O)[C@@H](NC(=O)[C@H](CN)NC(=O)[C@@H](NC(=O)C3CNCC(CC(C)C)C3)C(C)O)CCNC(=O)[C@H]([C@@H](C)O)NC(=O)[C@H](CCN)NC(=O)[C@H](CCN)NC(=O)[C@H](CC(C)C)NC2=O)cc1 (stereo partly drawn) [Example 23] (X4-[Thr(3ξ)][Dap][Dab][Dab][X5]L[Dab][Dab]T; lactam 3-C)	2 (≈ 1.63 µM)		2 (≈ 1.63 µM)	2 (≈ 1.63 µM)	2 (≈ 1.63 µM)		2 (≈ 1.63 µM)		2 (≈ 1.63 µM)	1 (≈ 0.814 µM)	2 (≈ 1.63 µM)	8 (≈ 6.51 µM)	4 (≈ 3.26 µM)	4 (≈ 3.26 µM)	MIC E. coli 059 [2]: 2 µg/mL (≈ 1.63 µM); MIC E. coli 060 [2]: 2 µg/mL (≈ 1.63 µM); MIC K. pneumoniae 062 [3]: 4 µg/mL (≈ 3.26 µM); MIC K. pneumoniae 064 [3]: 4 µg/mL (≈ 3.26 µM); MIC K. pneumoniae 066 [3]: 2 µg/mL (≈ 1.63 µM); MIC K. pneumoniae 067 [3]: 4 µg/mL (≈ 3.26 µM); MIC K. pneumoniae ATCC 4352 [3]: 1 µg/mL (≈ 0.814 µM)
CCC(C)CCCCC(=O)N[C@@H](CCN)C(=O)N[C@H](C(=O)N[C@@H](CCN)C(=O)N[C@H]1CCNC(=O)[C@H]([C@@H](C)O)NC(=O)[C@H](CCN)NC(=O)[C@H](CCN)NC(=O)[C@H](CC(C)C)NC(=O)[C@@H](Cc2ccc(C#N)cc2)NC(=O)[C@H](CCN)NC1=O)C(C)O (stereo partly drawn) [Example 24, Polymyxin B[D-(4-cyano)Phe]-6] ({Octanoyl(6-Me)}-[Dab][Thr(3ξ)][Dab][Dab][Dab][dPhe(4-CN)]L[Dab][Dab]T; lactam 4-C)	0.25 (≈ 0.203 µM)	0.25 (≈ 0.203 µM)	4 (≈ 3.26 µM)	0.125 (≈ 0.102 µM)	8 (≈ 6.51 µM)		0.25 (≈ 0.203 µM)	0.5 (≈ 0.407 µM)	>64	>64	16 (≈ 13 µM)	64 (≈ 52.1 µM)	32 (≈ 26 µM)	>64	MIC K. pneumoniae ATCC 4352 [3]: 0.125 µg/mL (≈ 0.102 µM)
CCCCCCCCc1ccc(C[C@H]2NC(=O)[C@H](CCN)NC(=O)[C@@H](NC(=O)[C@H](CN)NC(=O)[C@@H](NC(=O)[C@@H](N)CCN)C(C)O)CCNC(=O)[C@H]([C@@H](C)O)NC(=O)[C@H](CCN)NC(=O)[C@H](CCN)NC(=O)[C@H](CC(C)C)NC2=O)cc1 (stereo partly drawn) [Example 29, L-Dab-L-Thr-L-Dap-polymyxin [D-(4-octyl Phe)]-6 heptapeptide] (H-[Dab][Thr(3ξ)][Dap][Dab][Dab][X5]L[Dab][Dab]T; lactam 4-C)	4 (≈ 3.44 µM)	4 (≈ 3.44 µM)	32 (≈ 27.6 µM)	2 (≈ 1.72 µM)	>64		4 (≈ 3.44 µM)	8 (≈ 6.89 µM)							
CC(C)C[C@@H]1NC(=O)[C@@H](CC2CCCCC2)NC(=O)[C@H](CCN)NC(=O)[C@@H](NC(=O)[C@H](CN)NC(=O)[C@@H](NC(=O)C(CN)CC2CCCCC2)C(C)O)CCNC(=O)[C@H]([C@@H](C)O)NC(=O)[C@H](CCN)NC(=O)[C@H](CCN)NC1=O (stereo partly drawn) [Example 31, 3-amino-2-(cyclohexylmethyl) propanoyl L-Thr-L-Dap-polymyxin [D-cyclohexylalanine]-6 heptapeptide] (X21-[Thr(3ξ)][Dap][Dab][Dab][dCha]L[Dab][Dab]T; lactam 3-C)	0.25 (≈ 0.223 µM)	0.5 (≈ 0.445 µM)	2 (≈ 1.78 µM)	0.5 (≈ 0.445 µM)	1 (≈ 0.891 µM)	0.5 (≈ 0.445 µM)	0.5 (≈ 0.445 µM)	1 (≈ 0.891 µM)	32 (≈ 28.5 µM)	16 (≈ 14.3 µM)	16 (≈ 14.3 µM)	16 (≈ 14.3 µM)	2 (≈ 1.78 µM)	2 (≈ 1.78 µM)	
